Data as given in US20140262287A1, “ENVIRONMENTALLY FRIENDLY QUATERNARY SALTS OF AMINES AND THEIR USE AS TEMPORARY AND/OR PERMANENT CLAY STABILIZERS AND METHODS FOR MAKING AND USING SAME” (CLEARWATER INTERNATIONAL, LLC, priority 2013, published 2014).

How the values were obtained:
[1] = Linear Swell after 23 hours; 6000 ppm; Bentonite pellet
Protocol: The Linear Swell Meter was OFITE 115V Dynamic Linear Swell Meter Model #150-80. 14 g of Bentonite was added to a pelletizercompactor and 10,000 psi pressure was applied for 30 minutes. The pellet was removed from the compactor. Ensure all components of the Linear Swell Meter are clean: transfer stand, cap for wafer tube, bottom plate, magnetic stir bar, Teflon washer, and cup. With both the screens in the linear swell meter cell, the swell meter was zeroed out by clicking on the specific cell(s) to be zeroed out and clicked “apply”. One of the screens from the cell was removed and the pellet was added on top of the other screen. The other screen was put on top of the pellet. The transfer stand was gently placed on top of the pellet. The cell was placed on the magnetic stir plate underneath the linear variable differential transformer (LVDT) to make sure that the spindle was directly centered on top of the transfer stand. The fluid to be tested was poured through the hole on the cap for the wafer tube, the box was checked to start the cell and “apply” was clicked. Doing this will start the test for the specific cell.

[2] = Clay stabilization test (water separation from 1% clay solution); conditions: dosage 0.5 (wt. %/100 mL); 60 minutes; 100 mL of 1% clay solution; (Top)/(Middle) printed in cell
Protocol: (§1) Clay Solution Preparation
To make 100 mL of a clay solution, measure 1 g of Cream Bentonite Clay or Weatherford Bentonite Clay material. Add 99 g of distilled water and shake bottle until all the clay is dissolved.
Measure 100 ml of clay solution in a graduated cylinder. Shake 10 times. Record separation time and clay precipitation.
Measure 100 mL of clay solution in a graduated cylinder and add 0.5 mL of the desired clay stabilizer. Shake 10 times. Record separation time and clay coagulation. Record clay deposition, swelling and water release.

[3] = system: Fathead Minnow (pimephales promelas); assay: Acute toxicity minnow survival test; assay type: in vivo; conditions: for LC50: acute toxicity survival, Examples 4 and 5 range-finding and definitive test, TMAC and Example 3 range-finding test only; for toxicity to minnows compared with TMAC / prior art: comparison in words, data of Table II
Protocol: As a consequence, the “definitive” test gave a more precise LC50 value. LC50 was determined using a log-normal transformation coupled with linear regression between the bracketing no observed effect concentration (NOEC) and lowest observed effect concentration (LOEC). Both the range finding and definitive tests were run on Example 4 and Example 5. Only the ranging finding test was run for TMAC and Example 3.

[4] = Water release clay stabilization test; set-up: unit not given here; conditions: 100 mL of 1 wt. % Wyoming Bentonite clay solution
Protocol: as §1
To make 1 wt. % clay solution, 23 g of Wyoming Bentonite Clay and 2277 g of distilled water were added to a bottle and shaken until all the clay was dissolved. […]
Measure 100 mL of clay solution into 6 graduated cylinders. […] The addition of the clay stabilizers at 0.1 mL, 0.2 mL, 0.4 mL, 0.6 mL, 0.8 mL, and 1.0 mL in 100 mL of a clay solution corresponds to 1, 2, 4, 6, 8 and 10 Gallons per Thousand (or gpt). Invert the cylinders 20 times. Start timer and record separation time and clay coagulation. Record clay deposition, swelling and water release.

[5] = Capillary suction timer clay stabilization test; conditions: 2 g Bentonite in 100 g solution
Protocol: A rock sample was placed in a Gyral Grinder and grinding of the rock sample was begun. The rock sample was ground for 1 hour using a timer. The ground rock sample was placed into a 200-mesh sieve. The aggregate that passed through the sieve was placed in a pan for testing and placed to the side.
Using a 100 mL volumetric flask, a solution was prepared that will be used to mix with the rock sample. At least one solution should be prepared as the sample with straight tap water will be used as a reference blank. 100 g of solution was added to a 250 mL beaker equipped with a magnetic stir bar. A specified amount of each shale inhibitor was added to the beaker. The beaker was placed on stir plate and stirring was begun at a speed at which a vortex reaches the bottom of the beaker. 2 g of the untreated Bentonite sample was added and a timer was set for 5 minutes. After 5 minutes, the stir plate was turned off, the solution was poured into a 100 mL graduated cylinder, and a timer was set for 15 minutes. After 15 minutes, the mixture was poured back into the beaker, the beaker was placed on the magnetic stir plate and stirring was restarted on the plate. Wait until the vortex returned and the clay had become dispersed.
A Venture Innovations capillary suction timer (CST) from Venture Chemicals, Inc. in Lafayette, La. was used in the tests. Before each test, the test head, filter paper, and stainless steel funnel were cleaned and dried. Make sure the cable from the test head was plugged into the control box and the reading on the control box display was reset to zero. A piece of 7×9 cm CST filter paper from Venture Innovations Inc. (part no. IFP-9053) was placed on the test head with the stainless steel probes facing down. The stainless steel funnel was fitted into the test head.
Using a 5-mL syringe, 5-mL of sample was withdrawn from the vortex. Consecutive samples were removed from the same position in the vortex, where the previous sample was taken. A 5 mL sample was charged into the stainless steel funnel. The 5 mL sample charge was repeated twice more. Instrument started automatically when a beep sounds from the control box. When this beep sounded, the timer started. […]

Compound | % Swell [1] [%] | Final Water (mL) [2] | LC50 [3] [µg/mL] | toxicity to minnows compared with TMAC / prior art [3] | WR (water release at 60 minutes) 2.0 gpt [4] | WR (water release at 60 minutes) 4.0 gpt [4] | WR (water release at 60 minutes) 6.0 gpt [4] | WR (water release at 60 minutes) 8.0 gpt [4] | WR (water release at 60 minutes) 10.0 gpt [4] | CST Time ([5]; CST concentration 4000 ppm) [s] | CST Time ([5]; CST concentration 5000 ppm) [s] | CST Time ([5]; CST concentration 6000 ppm) [s]
C[N+](C)(C)CCO.[Cl-] [Choline Chloride, reference compound] | 88.9 | 27 mL/60 minutes (Top) | – | – | – | – | – | – | – | – | – | –
OCC[N+](CCO)(CCO)Cc1ccccc1.[Cl-] [Example 4] | – | – | 3160 | much less toxic than TMAC | 27 | 33 | 34 | 33 | 32 | 18 | – | –
CCOS(=O)(=O)[O-].CC[N+](CCO)(CCO)CCO [Example 5] | – | 20 mL/60 minutes (Middle) | 6030 | much less toxic than TMAC | 2 | 9 | 22 | 26 | 31 | 90 | 68 | 92
C[N+](C)(C)C.[Cl-] [tetramethylammonium chloride, reference compound] | – | – | 737 | – | – | – | – | – | – | – | – | –
